Assays:
[1] = target: T1, small-conductance Ca2+-activated K+ channels (SK channels, subtype 3), hSK3 (Homo sapiens, UniProt Q9UGI6); assay: Whole-cell patch-clamp recording of ionic current through hSK3 channels expressed in HEK293 cells; type: cell-based; settings: HEK293 cells expressing hSK3 channels
T1 construct: expressed in transfected cells; host or cells: HEK293
Procedure: The compounds of the invention may be tested for their usefulness as potassium channel modulating agents e.g. such as described in WO 2006/100212.
The ionic current through small-conductance Ca^2+-activated K^+ channels (SK channels, subtype 3) is recorded using the whole-cell configuration of the patch-clamp technique in a classic patch-clamp set-up using HEK293 tissue culture cells expressing hSK3 channels as described in e.g. WO 2006/100212
The SC100 value determined is defined as the Stimulating Concentration required for increasing the baseline current by 100%. The SC100 value determined for Compound 4.1 of the invention was 0.022±0.013 μM, which is an indication of its SK3 activating properties.

Cc1cc(C)n(-c2nc(Nc3ccc(Cl)cc3)cc(N3CCOCC3)n2)n1 [Compound 4.1, (4-Chloro-phenyl)-[2-(3,5-dimethyl-pyrazol-1-yl)-6-morpholin-4-yl-pyrimidin-4-yl]-amine]
melting point: 186 to 187 °C | SC100 (Stimulating Concentration required for increasing the baseline current by 100%) [1]: 0.022 ± 0.013 µM
